Reference: patent US8415333B2, “Bronchodilating diazaheteroaryls” (Respiratorious AB, priority 2009, dated 2013)

Key:
human bronchiols [1] = test: Test Procedure B: remaining contraction of LTD4-contracted human bronchus preparation under sequential test item concentrations; format: cell-based; settings: for % RC 0.1 μM: test item 0.1 μM for 1 h in 10 nM LTD4 PSS; for % RC 1 μM: test item 1 μM for 1 h in 10 nM LTD4 PSS; for % RC 1 μM / % RC 10 μM: sequential; for % RC 10 μM: test item 10 μM for 1 h in 10 nM LTD4 PSS
Procedure: (§1) The usefulness of the compounds, as defined in the embodiments herein, in treating, revoking, mitigating, alleviating and/or preventing a condition of the respiratory apparatus characterized by bronchoconstriction, were evaluated in a complex and relevant in vitro model, which is described in US 2006-0040254 A1 and Skogvall, S., Berglund, M., Dalence-Guzmán, M. F., Svensson, K., Jönsson, P., Persson, C. G. A and Sterner, O., Pulmonary Pharmacology and Therapeutics, vol 20:3, 2007, p. 273-280. All references disclosed herein are hereby incorporated in their entirety by reference.
(§2) Lung tissue was obtained from patients undergoing lobectomia or pulmectomia due to lung carcinoma. The tissue was placed in a dissection chamber continuously perfused with 10 ml min^−1 of a physiological saline solution (PSS) at room temperature. An airway was identified in the cut part of the lobe, and a bronchus of 10-20 mm length, and 1-2 mm diameter was obtained. The bronchus was cut into rings of a width of about 2-3 mm. Each bronchial ring was cleaved to obtain an about rectangular oblong preparation free from cartilage, one end of which was tied to a small steel hook connected to a force transducer, while the other end of the preparation was attached to a fixed hook. This is followed by a period of adjustment, as described below. The preparation was mounted in an atmosphere containing 12% of oxygen and 6% of CO2.
(§3) The experimental assay system consists of 8 chambers, each with a volume of 6 ml, and is continuously perfused with solutions at a rate of 3 ml/min at 37° C. The chambers are equipped with force transducers (model AME 801, SensoNor A/S, Horton, Norway) allowing the individual registration of parallel preparations. The force transducers are connected to micrometer screws for stretching of tissue preparations to the desired tone. Recordings from the experiments are sampled and analysed using software from ADInstrumets. The substances to be tested and contractile agent are injected upstream of the preparation(s).
(§4) Materials. PPS (physiological saline solution, in mM): NaCl, 117; KCl, 4.87; MgSO4, 0.60; NaHCO3, 25.0; CaCl2, 1.60; glucose, 5.23. The solution is saturated with a mixture of 94% oxygen and 6% carbon dioxide, giving a pH of 7.40±0.05 in the experimental chamber. All substances are prepared as stock solution dissolved in the vehicles ethanol or DMSO. Leukotriene D4 (LTD4; Cayman Ltd.): 10 μl of a 100 μM ethanol stock solution. Substance to be tested: 10-100 μl of a 0.01-0.1 M DMSO stock solution. Solution for establishing the passive tension level: calcium-free PSS+2 mM EGTA. To exclude effects by the test substance vehicle, DMSO was added during the entire experiment except during the presence of test substance.
After mounting as described above the preparation is allowed to adjust with a low passive tone in the experimental chamber. The composition of the gas is changed to 94% (v/v) of oxygen. After a short adjustment period, PSS with 10 nM LTD4 is added to the experimental chamber upstream of the preparation (A). The preparation is stretched repeatedly (B) until it exerts a contraction force of around 150 mg. The preparation is kept at level contraction, plateau, with 10 nM LTD4 for 30 min (C). The preparation is then treated with 0.1 μM of the test item in 10 nM LTD4 PSS for 1 h. This is followed by the sequential treatment with 1 μM of the test item in 10 nM LTD4 PSS for 1 h (E) and finally 10 uM of the test item in 10 nM LTD4 PSS for 1 h (F). The experiment is concluded by adding calcium-free solution with addition of 2 mM EGTA for 20 min to establish the passive tension level base line (G).
The result, bronchorelaxing efficiency, is calculated as follows: by comparing and obtaining the ratio between the tensioned states (relative to base line) at the different concentrations, the bronchorelaxing efficiency of the test item is determined. The results are expressed as % remaining contraction (RC). […]

human bronchiols [2] = test: Test Procedure A: remaining contraction of human bronchus preparation on LTD4 challenge after 1 h pre-treatment with test item; format: cell-based; settings: 10 nM Leukotriene D4; for % RC 1 μM: test item 1 μM pre-treatment; for % RC 10 μm: test item 10 μm, 1 h pre-treatment
Procedure: as §1, §2, §3, §4
After mounting as described above the preparation is allowed to adjust with a low passive tone in the experimental chamber. The composition of the gas is changed to 94% (v/v) of oxygen. After a short adjustment period, PSS with 10 nM LTD4 is added to the experimental chamber upstream of the preparation (A). The preparation is stretched repeatedly (B) until it exerts a contraction force of around 150 mg. When the contraction has levelled off, LTD4-free solution is administered for 1 hour (C), resulting in a relaxation. A second injection of 10 nM LTD4 (D) makes the preparation return to the tensioned state. At the peak tension leukotriene-free solution is again administered (E). After a third injection of 10 nM LTD4 (F) the preparation returns to the tensioned state. […] After 1 h exposure to the test item, 10 nM LTD4 is added, resulting in a contraction (H). If the test item is a bronkorelaxant, a substantially weaker contraction is now observed (H) in comparison with the control LTD4 contraction (F). To obtain a measure of the test substance's bronchorelaxing effect the test and control forces registered in the experiment are compared. […]

Structure (SMILES)	% RC 0.1 μM (human bronchiols [1]) [%]	% RC 1 μM (human bronchiols [1]) [%]	% RC 10 μM (human bronchiols [1]) [%]	% RC 1 μM (human bronchiols [2]) [%]	% RC 10 μm (human bronchiols [2]) [%]
Cc1nc2ncccc2cc1C(=O)NCc1csc(-c2ccccc2)n1 [Example 4, 2-Methyl-N-((2-phenylthiazol-4-yl)methyl)-1,8-naphthyridine-3-carboxamide]	85	39	4		
Cc1nc2ncccc2cc1C(=O)NCc1ccc(C(F)(F)F)cc1 [Example 2, 2-Methyl-N-(4-(trifluoromethyl)benzyl)-1,8-naphthyridine-3-carboxamide]				77	23
Cc1nc2ncccc2cc1C(=O)NCc1ccc(-c2ccccc2)cc1 [Example 19, N-(Biphenyl-4-ylmethyl)-2-methyl-1,8-naphthyridine-3-carboxamide]				41	17
Cc1ccc2cc(C(=O)NCc3ccc(C(C)(C)C)cc3)c(C)nc2n1 [Example 109, N-(4-tert-butylbenzyl)-2,7-dimethyl-1,8-naphthyridine-3-carboxamide]	73	25	1		
Cc1nc2ncccc2cc1C(=O)NCc1ccc(N2CCN(C)CC2)c(C(F)(F)F)c1 [Example 62, 2-methyl-N-(4-(4-methylpiperazin-1-yl)-3-(trifluoromethyl)benzyl)-1,8-naphthyridine-3-carboxamide]	92	63	17		
Cc1nc2ncccc2cc1C(=O)NCc1cccc(C(F)(F)F)c1 [Example 14, 2-Methyl-N-(3-(trifluoromethyl)benzyl)-1,8-naphthyridine-3-carboxamide]				76	15
Cc1nc2ncccc2cc1C(=O)OCc1csc(-c2ccccc2)n1 [Example 101, (2-Phenylthiazol-4-yl)methyl 2-methyl-1,8-naphthyridine-3-carboxylate]	72	63	27		
Cc1nc2ncccc2cc1C(=O)NCc1ccc(Cl)c(C(F)(F)F)c1 [Example 17, N-(4-Chloro-3-(trifluoromethyl)benzyl)-2-methyl-1,8-naphthyridine-3-carboxamide]				67	8
